Data as given in paper PMC11423184 (Advanced Science, 2024).

Target: T1, SWELL1 channel (VRAC; SWELL1 = LRRC8A) (Mus musculus, UniProt Q80WG5)
T1 construct: endogenous VRAC in mouse primary astrocytes and hippocampal CA1 neurons, full length; neuronal current absent in NEX-cKO
T1 sequence (Q80WG5 1-810): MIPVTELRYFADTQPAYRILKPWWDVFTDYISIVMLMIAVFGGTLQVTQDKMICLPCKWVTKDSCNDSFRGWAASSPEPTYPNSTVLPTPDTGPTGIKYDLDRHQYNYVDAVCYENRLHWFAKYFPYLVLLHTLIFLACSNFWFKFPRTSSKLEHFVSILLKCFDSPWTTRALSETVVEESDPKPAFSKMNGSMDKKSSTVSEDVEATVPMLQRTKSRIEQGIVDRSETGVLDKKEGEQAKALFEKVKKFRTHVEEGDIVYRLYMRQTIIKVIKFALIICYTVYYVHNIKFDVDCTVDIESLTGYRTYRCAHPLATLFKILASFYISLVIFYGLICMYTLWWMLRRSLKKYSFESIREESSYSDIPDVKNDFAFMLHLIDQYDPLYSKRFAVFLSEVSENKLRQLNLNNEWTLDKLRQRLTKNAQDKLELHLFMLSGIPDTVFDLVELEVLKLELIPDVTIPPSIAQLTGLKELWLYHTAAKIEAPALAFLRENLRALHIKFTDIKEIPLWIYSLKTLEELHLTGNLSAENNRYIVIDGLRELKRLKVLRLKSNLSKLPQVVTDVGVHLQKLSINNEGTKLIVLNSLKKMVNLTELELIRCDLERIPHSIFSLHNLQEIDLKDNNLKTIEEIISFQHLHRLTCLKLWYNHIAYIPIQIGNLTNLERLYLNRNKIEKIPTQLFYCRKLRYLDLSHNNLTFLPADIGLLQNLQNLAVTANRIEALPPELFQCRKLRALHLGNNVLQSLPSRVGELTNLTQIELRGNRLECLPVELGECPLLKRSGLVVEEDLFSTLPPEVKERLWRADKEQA
Assay: whole-cell patch clamp, primary astrocytes
Format: cell-based
Details: hypotonicity-induced SWELL1 currents; concentration not given

Structure (SMILES): CC(=O)CC(c1ccccc1)c1c(O)c2ccccc2oc1=O (stereo not shown) [Warfarin]
- whole-cell patch clamp, primary astrocytes: Warfarin, another anticoagulant of the same family, failed to inhibit hypotonicity‐induced SWELL1 currents
